Key:
KCC2 [1] = target: T1, KCC2 (Homo sapiens, UniProt Q9H2X9); assay: FLIPR TI+ flux assay, HEK-293 cells expressing KCC2; type: cell-based
T1 construct: expressed in transfected cells; host or cells: HEK-293 (ATCC CRL-1573)
T1 sequence (Q9H2X9 1-1116 isoform Q9H2X9-2): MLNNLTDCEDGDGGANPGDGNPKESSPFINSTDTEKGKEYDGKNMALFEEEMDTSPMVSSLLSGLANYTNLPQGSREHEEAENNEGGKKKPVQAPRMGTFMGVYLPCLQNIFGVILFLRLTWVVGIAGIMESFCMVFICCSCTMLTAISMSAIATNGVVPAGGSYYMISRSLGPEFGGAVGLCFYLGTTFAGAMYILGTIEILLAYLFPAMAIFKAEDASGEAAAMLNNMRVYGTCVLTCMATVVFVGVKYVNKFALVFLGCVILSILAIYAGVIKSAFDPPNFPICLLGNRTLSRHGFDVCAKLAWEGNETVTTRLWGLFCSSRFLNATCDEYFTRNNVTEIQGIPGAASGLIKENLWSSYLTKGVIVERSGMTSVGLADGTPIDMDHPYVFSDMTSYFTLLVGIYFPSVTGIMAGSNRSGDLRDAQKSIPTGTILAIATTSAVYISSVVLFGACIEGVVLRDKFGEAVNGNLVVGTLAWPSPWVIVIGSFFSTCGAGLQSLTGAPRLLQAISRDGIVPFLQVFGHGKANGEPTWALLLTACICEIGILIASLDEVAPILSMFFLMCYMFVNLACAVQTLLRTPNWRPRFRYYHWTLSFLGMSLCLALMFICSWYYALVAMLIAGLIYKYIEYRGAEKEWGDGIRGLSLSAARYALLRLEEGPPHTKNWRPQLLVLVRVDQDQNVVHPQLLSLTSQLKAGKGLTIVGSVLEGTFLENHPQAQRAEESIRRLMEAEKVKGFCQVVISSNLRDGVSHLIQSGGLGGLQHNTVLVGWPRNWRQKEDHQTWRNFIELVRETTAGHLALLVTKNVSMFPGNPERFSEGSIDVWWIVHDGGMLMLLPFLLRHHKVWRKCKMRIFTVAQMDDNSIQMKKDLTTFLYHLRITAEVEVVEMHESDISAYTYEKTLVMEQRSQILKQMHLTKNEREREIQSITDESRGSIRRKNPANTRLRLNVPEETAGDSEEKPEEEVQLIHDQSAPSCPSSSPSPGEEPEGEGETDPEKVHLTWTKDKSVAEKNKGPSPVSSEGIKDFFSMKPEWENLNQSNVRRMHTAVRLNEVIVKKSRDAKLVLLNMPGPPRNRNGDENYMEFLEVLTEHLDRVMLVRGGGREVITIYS
Method: A multi-tiered high-throughput screening assay was used, leveraging a proprietary library of 1.3 million small molecule compounds from AstraZeneca (Cambridge, UK) to identify chemical entities capable of activating KCC2. A single point concentration of 30 μM was used to identify potassium flux using an established thallium (TI+) influx FLIPR assay as the primary read out in HEK-293 cells overexpressing KCC2 (Cardarelli et al., Nat. Med. 23, 1394-1396 (2017); Conway et al., J Biol Chem 292, 21253-21263 (2017); Lee et al., 2022, supra).
Cell Culture and biotinylation. […]
FLIPR TI Flux assay. HEK-293 cells were washed with HBSS, and then incubated with loading buffer containing TI sensitive fluorescent dye (https://www.moleculardevices.com), 20 μM bumetanide 20 μM ouabain and 2.5 mM probenecid for 1 h at room temperature (RT) under control conditions or with drugs in the dark using a FlexStation 3 microplate reader (Molecular Devices) and imaged […] for 30 min. Stimulus buffer was added containing 5 mM K^+/0.5 mM Tl^+ and cells were imaged every 1.5 over a 190 second time course The initial rate Tl^+ uptake (Relative Fluorescence Units (RFU) per second) was determined following addition of the stimulus buffer as outlined previously (Conway et al., 2017, supra) (Lee et al., 2022, supra). […]

KCC2 [2] = target: T1, KCC2; assay: biotinylation, plasma membrane level of KCC2 in HEK-293 cells; type: cell-based; conditions: 15 min
Method: Cell Culture and biotinylation. HEK-293 cells were purchased from ATCC (CRL-1573) and transfected with human KCC2 and GFP expression plasmids using Lipofectamine 2000. Cells were utilized for experimentation 48-72 h following transfection. Cells were biotinylated at 4° C. using NHS-Biotin. Following lysis and purification on immobilized avidin beads, cell surface and total fractions were subject to immunoblotting as outlined previously (Conway et al., 2017, supra).
The reliability of the biotinylation procedure was assessed via immunoblotting with antibodies against the cytosolic protein actin. Actin was present in the total lysates but was absent from the surface fractions (FIG. 2C).

[3] = design: species or system mice; conditions: in vivo

Question: For `C[C@@H]1CN(c2nc3c(c(Nc4ccc(C5CCCCC5)cc4)n2)COC3)CCO1` [Compound A, (R)—N-(4-cyclohexylphenyl)-2-(2-methylmorpholino)-5,7-dihydrofuro[3,4-d]pyrimidin-4-amine], which EC50 (KCC2 [1]; HEK-293 cells, 1% β-cyclodextrin (BCD) vehicle, read-out: EC50 for KCC2 as measured by TI+ flux) is on record?
Answer: 261 ± 22.2 nM

Question: What about the “maximum potentiation of KCC2” value (KCC2 [1]; saturating concentration of 3 μM, 1% BCD vehicle) of the same compound?
Answer: 90%

Question: What about the “level of KCC2 on the plasma membrane (surface/total)” value (KCC2 [2]; 0.3 μM) of the same compound?
Answer: 94.5±8.4 % of control

Question: What about the “level of KCC2 on the plasma membrane (surface/total)” value (KCC2 [2]; 3 μM) of the same compound?
Answer: 104.7±8.4 % of control

Question: And the “gross effects on mouse behavior in the open field” value [3]?
Answer: no gross effects on mouse behavior

Question: What about the “total distance traveled in open field” value ([3]; mouse, sc, 50 mg/kg) of the same compound?
Answer: 6134.2±235.3 cm

— US20250281498A1, “FUSED AMINO PYRIMIDINE COMPOUNDS FOR TREATMENT OF SYNUCLEINOPATHIES AND TDP-43 PROTEINOPATHIES” (Ovid Therapeutics Inc., priority 2024, published 2025)
